Experimental data taken from ChEMBL document CHEMBL5346945, “Discovery and Optimization of the First ATP Competitive Type-III c-MET Inhibitor” (J Med Chem, 2023).

Columns and labels:
[1] = Lipophilicity, logD of compound in octanol and water at pH 7.4 measured by shake-flask method; type: physicochemical
[2] = target: T1, Hepatocyte growth factor receptor (Homo sapiens, UniProt P08581); experiment: Inhibition of wild type c-MET (unknown origin) using ATP and poly(L-glutamic acid-L-tyrosine) as substrate incubated for 60 mins measured by ADP-Glo kinase assay
[3] = Permeability across basolateral to apical side in MDCK cells at 10 uM by LC-MS/MS analysis; type: ADME, cell-based, Canis lupus familiaris; conditions: dog, read-out: permeability
[4] = Metabolic stability in human hepatocytes assessed as intrinsic clearance measured per million cells at 1 uM measured at 0.5 to 2 hrs by LC-MS/MS analysis; type: ADME, cell-based, Hepatocyte; conditions: time 0.5-2 hrs, read-out: CLH
[5] = Oral bioavailability in Han Wistar rat plasma at 1 mg/kg, measured for 1 to 24 hrs by LC-MS/MS analysis; type: ADME, organism-based; conditions: in vivo, time 1-24 hrs
[6] = Volume of distribution at steady state in Han Wistar rat plasma at 1 mg/kg, po or 0.5 mg/kg, iv measured for 1 to 24 hrs by LC-MS/MS analysis; type: ADME, organism-based; conditions: in vivo, time 1-24 hrs
[7] = Ratio of drug concentration in brain to plasma of Han Wistar rat plasma at 2 micromol/kg per hour measured after 4 hrs by LC-MS/MS analysis; type: ADME; conditions: dose 2 µmol/kg
[8] = Metabolic stability in Han Wistar rat hepatocytes assessed as intrinsic clearance measured per million cells at 1 uM measured at 0.5 to 2 hrs by LC-MS/MS analysis; type: ADME, cell-based, Hepatocyte; conditions: time 0.5-2 hrs, read-out: CLH
[9] = Metabolic stability in human liver microsomes assessed as intrinsic clearance at 1 uM preincubated with NADPH for 8 mins followed by compound addition measured at 0.5 to 30 mins by LC-MS/MS analysis; type: ADME, Microsome; conditions: time 0.5-30 min, read-out: CLH
[10] = target: T1, Hepatocyte growth factor receptor; experiment: Binding affinity to wild type c-MET (unknown origin) assessed as dissociation constant measured for 120 sec by SPR analysis
[11] = target: T1, Hepatocyte growth factor receptor; experiment: Inhibition of wild type c-MET in human NCI-H1993 cells incubated for 4 hrs measured by HTRF assay; type: cell-based
[12] = target: Tyrosine-protein kinase receptor UFO (Homo sapiens) (UniProt P30530); conditions: dose 100.0 nM
Description: Inhibition of AXL (unknown origin) at 100 nM relative to control

[13] = target: T1, Hepatocyte growth factor receptor; conditions: dose 100.0 nM
Description: Inhibition of c-MET (unknown origin) at 100 nM relative to control

[14] = target: T2, Tyrosine-protein kinase Mer (Homo sapiens) (UniProt Q12866); conditions: dose 100.0 nM
T2 sequence (whole entry): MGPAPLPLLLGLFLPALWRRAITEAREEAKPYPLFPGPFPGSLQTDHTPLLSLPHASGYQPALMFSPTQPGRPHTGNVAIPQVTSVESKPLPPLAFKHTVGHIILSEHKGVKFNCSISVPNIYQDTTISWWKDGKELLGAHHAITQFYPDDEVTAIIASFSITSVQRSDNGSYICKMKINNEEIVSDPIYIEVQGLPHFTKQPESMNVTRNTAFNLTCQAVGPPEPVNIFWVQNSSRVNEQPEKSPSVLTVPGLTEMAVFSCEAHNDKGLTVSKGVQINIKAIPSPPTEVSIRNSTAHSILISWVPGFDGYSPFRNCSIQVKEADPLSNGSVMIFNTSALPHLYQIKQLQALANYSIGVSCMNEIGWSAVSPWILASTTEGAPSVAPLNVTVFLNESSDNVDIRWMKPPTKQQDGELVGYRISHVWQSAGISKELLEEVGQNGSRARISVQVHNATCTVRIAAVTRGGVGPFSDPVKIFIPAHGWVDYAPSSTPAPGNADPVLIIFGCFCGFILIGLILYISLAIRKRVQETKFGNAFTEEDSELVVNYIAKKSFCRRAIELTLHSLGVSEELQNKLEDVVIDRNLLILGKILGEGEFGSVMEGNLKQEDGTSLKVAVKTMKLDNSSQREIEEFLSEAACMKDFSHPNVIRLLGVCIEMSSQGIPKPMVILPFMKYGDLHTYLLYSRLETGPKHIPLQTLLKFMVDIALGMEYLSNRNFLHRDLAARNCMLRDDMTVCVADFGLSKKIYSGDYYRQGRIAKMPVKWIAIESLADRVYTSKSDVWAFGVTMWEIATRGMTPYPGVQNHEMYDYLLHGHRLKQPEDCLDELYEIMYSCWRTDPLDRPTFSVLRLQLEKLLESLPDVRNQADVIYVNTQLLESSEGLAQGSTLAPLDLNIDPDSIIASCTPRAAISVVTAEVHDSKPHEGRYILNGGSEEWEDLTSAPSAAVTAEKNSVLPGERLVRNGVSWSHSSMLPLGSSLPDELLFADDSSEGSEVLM
Description: Inhibition of MERTK (unknown origin) at 100 nM relative to control

[15] = target: Macrophage-stimulating protein receptor (Homo sapiens) (UniProt Q04912); conditions: dose 100.0 nM
Macrophage-stimulating protein receptor (Homo sapiens), sequence (Q04912 25-304 limits assumed): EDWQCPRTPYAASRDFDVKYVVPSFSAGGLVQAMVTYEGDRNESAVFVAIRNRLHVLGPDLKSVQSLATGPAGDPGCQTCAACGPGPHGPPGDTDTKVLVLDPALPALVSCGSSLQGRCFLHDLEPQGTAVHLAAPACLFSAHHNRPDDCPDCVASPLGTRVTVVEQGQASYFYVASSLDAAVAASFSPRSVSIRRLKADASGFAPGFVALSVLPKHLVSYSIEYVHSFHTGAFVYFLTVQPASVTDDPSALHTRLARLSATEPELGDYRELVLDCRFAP
Macrophage-stimulating protein receptor (Homo sapiens), sequence (Q04912 310-1400 limits assumed): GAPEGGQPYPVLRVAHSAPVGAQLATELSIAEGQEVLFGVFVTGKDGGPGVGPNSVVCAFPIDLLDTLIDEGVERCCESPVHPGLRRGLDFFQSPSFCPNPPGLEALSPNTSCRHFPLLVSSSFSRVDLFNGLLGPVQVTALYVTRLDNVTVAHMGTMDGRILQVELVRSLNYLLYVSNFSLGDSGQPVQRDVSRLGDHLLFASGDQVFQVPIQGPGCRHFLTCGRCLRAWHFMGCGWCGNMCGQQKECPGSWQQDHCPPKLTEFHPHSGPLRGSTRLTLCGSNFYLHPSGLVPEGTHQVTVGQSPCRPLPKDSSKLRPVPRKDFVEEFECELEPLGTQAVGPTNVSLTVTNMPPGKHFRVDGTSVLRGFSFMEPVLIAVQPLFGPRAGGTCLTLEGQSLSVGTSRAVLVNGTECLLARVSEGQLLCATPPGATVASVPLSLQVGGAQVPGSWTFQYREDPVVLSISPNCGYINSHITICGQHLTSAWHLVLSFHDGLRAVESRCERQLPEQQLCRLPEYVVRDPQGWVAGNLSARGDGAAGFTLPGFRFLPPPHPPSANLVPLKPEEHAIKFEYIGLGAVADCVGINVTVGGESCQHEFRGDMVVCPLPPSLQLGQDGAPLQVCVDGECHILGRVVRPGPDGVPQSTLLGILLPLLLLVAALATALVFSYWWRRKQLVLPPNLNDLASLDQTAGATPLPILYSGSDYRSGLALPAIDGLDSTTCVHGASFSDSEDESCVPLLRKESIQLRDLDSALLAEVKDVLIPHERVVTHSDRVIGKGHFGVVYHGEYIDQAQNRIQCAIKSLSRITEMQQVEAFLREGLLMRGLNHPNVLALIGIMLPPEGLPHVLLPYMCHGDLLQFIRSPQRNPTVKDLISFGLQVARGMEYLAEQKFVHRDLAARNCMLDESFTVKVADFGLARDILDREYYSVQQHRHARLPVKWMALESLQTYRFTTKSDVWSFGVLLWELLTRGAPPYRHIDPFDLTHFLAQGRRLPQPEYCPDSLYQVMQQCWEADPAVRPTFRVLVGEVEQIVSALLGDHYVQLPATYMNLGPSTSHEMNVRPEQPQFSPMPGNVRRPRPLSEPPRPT
Description: Inhibition of MST1R (unknown origin) at 100 nM relative to control

T1 sequence (P08581 whole entry): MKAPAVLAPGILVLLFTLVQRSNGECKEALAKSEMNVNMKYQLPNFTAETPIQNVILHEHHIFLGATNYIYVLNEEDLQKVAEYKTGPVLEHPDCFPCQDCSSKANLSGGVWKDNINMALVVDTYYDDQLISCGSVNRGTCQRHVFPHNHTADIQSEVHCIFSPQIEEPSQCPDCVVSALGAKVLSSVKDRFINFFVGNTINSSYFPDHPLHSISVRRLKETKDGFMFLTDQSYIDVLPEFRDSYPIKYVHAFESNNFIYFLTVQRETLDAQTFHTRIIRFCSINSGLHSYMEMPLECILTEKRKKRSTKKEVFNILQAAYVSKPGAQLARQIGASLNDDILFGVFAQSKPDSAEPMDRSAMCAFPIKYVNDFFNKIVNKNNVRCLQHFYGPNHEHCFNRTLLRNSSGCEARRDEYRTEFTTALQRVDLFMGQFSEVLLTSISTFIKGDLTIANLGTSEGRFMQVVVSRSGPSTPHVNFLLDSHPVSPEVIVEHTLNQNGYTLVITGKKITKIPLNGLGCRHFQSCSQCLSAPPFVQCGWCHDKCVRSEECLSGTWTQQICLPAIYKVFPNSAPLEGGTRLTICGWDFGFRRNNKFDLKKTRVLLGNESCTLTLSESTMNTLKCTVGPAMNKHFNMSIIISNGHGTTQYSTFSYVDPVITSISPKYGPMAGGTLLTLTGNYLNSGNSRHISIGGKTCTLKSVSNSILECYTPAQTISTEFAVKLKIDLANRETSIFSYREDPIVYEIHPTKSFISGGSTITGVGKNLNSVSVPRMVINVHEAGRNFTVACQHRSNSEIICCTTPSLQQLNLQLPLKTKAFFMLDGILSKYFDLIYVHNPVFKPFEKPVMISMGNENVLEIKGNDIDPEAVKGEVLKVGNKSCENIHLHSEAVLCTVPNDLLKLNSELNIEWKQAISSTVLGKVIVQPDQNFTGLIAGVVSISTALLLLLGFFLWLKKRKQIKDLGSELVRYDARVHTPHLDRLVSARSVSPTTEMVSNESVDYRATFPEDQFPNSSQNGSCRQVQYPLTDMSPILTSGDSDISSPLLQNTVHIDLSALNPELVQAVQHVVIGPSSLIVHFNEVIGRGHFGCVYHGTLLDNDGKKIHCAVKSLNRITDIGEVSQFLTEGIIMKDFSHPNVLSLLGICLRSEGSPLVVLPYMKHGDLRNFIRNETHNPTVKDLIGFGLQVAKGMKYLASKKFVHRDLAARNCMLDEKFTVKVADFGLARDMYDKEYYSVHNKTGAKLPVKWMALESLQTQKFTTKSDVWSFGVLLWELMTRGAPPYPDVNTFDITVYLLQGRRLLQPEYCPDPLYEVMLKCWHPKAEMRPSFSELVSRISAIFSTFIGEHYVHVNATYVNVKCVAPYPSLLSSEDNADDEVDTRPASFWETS
Tyrosine-protein kinase receptor UFO (Homo sapiens), sequence (P30530 whole entry): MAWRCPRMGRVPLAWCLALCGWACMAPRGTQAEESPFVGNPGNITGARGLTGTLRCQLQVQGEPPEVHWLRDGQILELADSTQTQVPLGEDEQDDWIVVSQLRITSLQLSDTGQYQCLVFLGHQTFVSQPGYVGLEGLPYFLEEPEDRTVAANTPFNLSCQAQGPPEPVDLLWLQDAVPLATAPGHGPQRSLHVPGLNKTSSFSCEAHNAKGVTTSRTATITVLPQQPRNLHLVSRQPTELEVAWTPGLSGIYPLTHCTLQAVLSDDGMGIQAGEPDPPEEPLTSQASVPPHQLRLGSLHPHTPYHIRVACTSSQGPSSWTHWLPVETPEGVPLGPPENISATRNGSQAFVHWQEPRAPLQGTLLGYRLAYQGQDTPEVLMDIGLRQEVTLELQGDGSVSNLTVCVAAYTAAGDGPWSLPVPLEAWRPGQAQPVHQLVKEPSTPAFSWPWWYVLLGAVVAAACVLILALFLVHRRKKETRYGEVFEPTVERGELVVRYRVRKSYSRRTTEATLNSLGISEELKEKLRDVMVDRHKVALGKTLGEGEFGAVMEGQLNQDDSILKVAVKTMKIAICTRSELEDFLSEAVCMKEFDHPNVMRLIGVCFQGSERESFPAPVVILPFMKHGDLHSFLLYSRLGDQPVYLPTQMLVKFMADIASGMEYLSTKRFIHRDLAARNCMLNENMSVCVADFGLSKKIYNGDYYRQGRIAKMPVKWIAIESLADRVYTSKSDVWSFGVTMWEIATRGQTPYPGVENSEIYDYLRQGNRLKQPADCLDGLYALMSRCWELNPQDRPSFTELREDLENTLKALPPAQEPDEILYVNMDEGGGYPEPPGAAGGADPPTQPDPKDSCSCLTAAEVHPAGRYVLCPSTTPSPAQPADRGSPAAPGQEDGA

Compound	logD [1]	IC50 [2] [nM]	hepatocyte CLint at 1 µM [8] [µL/min/1e6 cells]	microsomal CLint at 1 µM [9] [µL/min/mg]	Kd [10] [nM]	other results
C[C@@H](c1ccc(F)cc1)n1cc(-c2cc(F)cc3cn[nH]c23)c(=O)[nH]c1=O	2.8	150				Papp B→A at 10 µM [3]: 22.4 ×10⁻⁶ cm/s; hepatocyte CLint at 1 µM [4]: 1.81 µL/min/1e6 cells; F [5]: 57%; Vdss [6]: 4.3 L/kg; K(p,uu,brain) [7]: 0.11
CC(c1ccc(F)cc1)n1cc(-c2cc(F)cc3cn[nH]c23)c(=O)[nH]c1=O (stereo unspecified)	2.7	530	11.9	5.61		
C#Cc1n[nH]c2c(-c3cn(C(C)c4ccccc4)c(=O)[nH]c3=O)cccc12 (stereo unspecified)	3.2	40	9.1	12.8		
CC(c1ccccc1)n1cc(-c2ccc3[nH]ccc3c2)c(=O)[nH]c1=O (stereo unspecified)	2.9		217	25.4	520	
C#Cc1n[nH]c2c(-c3cn([C@@H](C)c4ccccc4)c(=O)[nH]c3=O)cc(F)cc12	3.4	13	15	< 3		EC50 [11]: 1170 nM; inhibition [12]: < 50%; inhibition [13]: 80%; inhibition [14]: 80%; inhibition [15]: < 50%
CC(c1ccccc1)n1cc(-c2cc(F)cc(F)c2)c(=O)[nH]c1=O (stereo unspecified)	3.2		123	17.8	2500	
CC(c1cccc(-c2c[nH]cn2)c1)n1cc(-c2cccc3cn[nH]c23)c(=O)[nH]c1=O (stereo unspecified)	2.3		5.84	8.92	460	
C[C@@H](c1ccc(F)cc1)n1cc(-c2cc(F)cc3c(C#N)n[nH]c23)c(=O)[nH]c1=O	3.3	75				Papp B→A at 10 µM [3]: 25.6 ×10⁻⁶ cm/s; hepatocyte CLint at 1 µM [4]: 2.48 µL/min/1e6 cells; F [5]: 96%; Vdss [6]: 1.5 L/kg; K(p,uu,brain) [7]: 0.014
CC(c1ccc(F)cc1)n1cc(-c2cc(F)cc(F)c2)c(=O)[nH]c1=O (stereo unspecified)			26.8	17.4	1200	
CC(c1ccc(F)cc1)n1cc(-c2cc(F)cc3c(C#N)n[nH]c23)c(=O)[nH]c1=O (stereo unspecified)	3.2	310	4.4	< 3		EC50 [11]: 18700 nM
CC(c1cccc(Cl)c1)n1cc(-c2cc(F)cc(F)c2)c(=O)[nH]c1=O (stereo unspecified)	3.8		177	27.4	1000	
CC(c1ccccc1)n1cc(-c2cccc3c(C#N)n[nH]c23)c(=O)[nH]c1=O (stereo unspecified)	2.9	500	41.4	32.7	200	
CC(c1cccc(-c2cc[nH]n2)c1)n1cc(-c2cc(F)cc(F)c2)c(=O)[nH]c1=O (stereo unspecified)	3.5		24.7	5.04	2600	
CC(c1ccccc1)n1cc(-c2cccc3cn[nH]c23)c(=O)[nH]c1=O (stereo unspecified)	2.4	1300	46.1	6.13	240	
CC(c1ccccc1)n1cc(-c2cccc3c(F)n[nH]c23)c(=O)[nH]c1=O (stereo unspecified)	3	810	49.4	32.4	240	
CC(c1cccc(-c2cn[nH]c2)c1)n1cc(-c2cc(F)cc(F)c2)c(=O)[nH]c1=O (stereo unspecified)	3.4		22.3	< 3	800	
CC(c1ccccc1Cl)n1cc(-c2cc(F)cc(F)c2)c(=O)[nH]c1=O (stereo unspecified)	3.6		227	38.3	36000	
C#Cc1n[nH]c2c(-c3cn(C(C)c4ccccc4)c(=O)[nH]c3=O)cc(F)cc12 (stereo unspecified)	3.3	31				EC50 [11]: 1950 nM; Papp B→A at 10 µM [3]: 14.2 ×10⁻⁶ cm/s; hepatocyte CLint at 1 µM [4]: 4.27 µL/min/1e6 cells; F [5]: 100%; Vdss [6]: 4.6 L/kg; K(p,uu,brain) [7]: 0.1
CC(c1ccccc1)n1cc(-c2cc(F)cc3c(C#N)n[nH]c23)c(=O)[nH]c1=O (stereo unspecified)	3.1	130	51.4	11.4	87	
C#Cc1n[nH]c2c(-c3cn(C(C)c4ccccn4)c(=O)[nH]c3=O)cc(F)cc12 (stereo unspecified)	2.5	55				Papp B→A at 10 µM [3]: 37.9 ×10⁻⁶ cm/s; hepatocyte CLint at 1 µM [4]: 1.29 µL/min/1e6 cells; F [5]: 91%; Vdss [6]: 1.6 L/kg; K(p,uu,brain) [7]: 0.022
CC(c1ccccc1)n1cc(-c2c(F)ccc3cn[nH]c23)c(=O)[nH]c1=O (stereo unspecified)	2.5	2200	28.3	7.35	440	
CC(c1ccccc1)n1cc(-c2cc(F)cc3cn[nH]c23)c(=O)[nH]c1=O (stereo unspecified)	2.5	400	14	4.04	120	
CC(c1cccc(-c2c[nH]cn2)c1)n1cc(-c2cc(F)cc(F)c2)c(=O)[nH]c1=O (stereo unspecified)	3.2		6.03	16.2	520	
CC(c1ccccn1)n1cc(-c2cc(F)cc3c(C#N)n[nH]c23)c(=O)[nH]c1=O (stereo unspecified)	2.1	1200	3.08	< 3		EC50 [11]: > 29800 nM
CC(c1ccccc1)n1cc(-c2ccccn2)c(=O)[nH]c1=O (stereo unspecified)	2.2		300	12.6	4500	
O=c1[nH]c(=O)n(Cc2ccccc2)cc1-c1cc(F)cc(F)c1	3		76.7	20.6	> 100000	
CC(c1ccccc1)n1cc(-c2ncccn2)c(=O)[nH]c1=O (stereo unspecified)	0.85		4.67	< 3	2700	
Cc1n[nH]c2c(-c3cn(C(C)c4ccccc4)c(=O)[nH]c3=O)cccc12 (stereo unspecified)	2.7	430	37	17.8	180	
CC(c1ccccc1)n1cc(-c2ccccc2)c(=O)[nH]c1=O (stereo unspecified)	2.7		185	50.1	3900	
C[C@@H](c1ccccc1)n1cc(-c2cc(F)cc(F)c2)c(=O)[nH]c1=O	3.1		133	7.68	920	
